Patent publication EP4800013A1, “PARG INHIBITOR” (Shanghai Qilu Pharmaceutical Research and Development …, priority 2023, dated 2025)

Test: Pharmacokinetic evaluation in CD-1 mice (IV and PO)
Type: in vivo
Details: male, mouse, plasma; for Vd: read-out: Vss
Procedure: Using mice as test animals, the compounds of the present disclosure were administered via intravenous bolus and oral injection. Plasma samples were collected at specific time points. Compound concentrations in plasma were determined by LC-MS/MS, and PK parameters were calculated to characterize the pharmacokinetic behavior of the compounds of the present disclosure in plasma.
CD-1 mice, male, supplied by Zhejiang Vital River Laboratory Animal Technology Co., Ltd.
Dosing regimen for CD-1 mice: Both the IV (intravenous) and PO (oral) experimental groups consisted of 3 mice. The IV group was administered at a dose of 1 mg/kg and a volume of 5 mL/kg. The PO group was administered at a dose of 30 mg/kg and a volume of 10 mL/kg. The dosing vehicle was 5% (v/v) DMSO/10% (v/v) Solutol/85% (v/v) saline.
Following administration, 0.025 mL of blood was collected via venipuncture at the following time points: 0.0833 (IV), 0.25, 0.5, 1, 2, 4, 8, and 24 hours. Blood samples were collected into EDTA-K2 tubes and centrifuged at 4°C and 2000 g for 10 minutes to separate plasma, which was stored at -80°C.
Mouse plasma processing: • 1) 15 µL of plasma was mixed with 200 µL of acetonitrile for protein precipitation. The mixture was vortexed and centrifuged for 15 minutes. • 2) The supernatant after processing was diluted with water and analyzed by LC/MS/MS to determine the concentration of the test compound.
Pharmacokinetic parameters were calculated using WinNonlin 6.1. Specifically, Cmax represents maximum plasma concentration, CL represents clearance, Vss represents volume of distribution at steady state, T1/2 represents terminal elimination half-life, MRTInf represents mean residence time, AUC represents area under the plasma concentration-time curve, and F represents bioavailability. Table 18: Pharmacokinetic parameters of the compounds of the present disclosure in CD-1 mice

For CCc1nc2n(-c3nnc(C(F)F)s3)c3cc(S(=O)(=O)NC4(C)CC4)cc(N4C[C@H](C)N[C@@H](C)C4)c3n2n1 [Compound 065R], the AUC (IV, 1 mg/kg) was 0.555 µM·h, the MRT inf (IV, 1 mg/kg) was 2.3 h and the clearance (IV, 1 mg/kg) was 50 mL/min/kg. It also gave a half-life (IV, 1 mg/kg) of 2.2 h, a Vd (IV, 1 mg/kg) of 6.8 L/kg and an AUC (PO, 30 mg/kg) of 11.2 µM·h. The Cmax (PO, 30 mg/kg) was 1610 nM, the MRT inf (PO, 30 mg/kg) was 4.6 h and the half-life (PO, 30 mg/kg) was 2.4 h.

Work on C[C@H]1CN(c2cc(S(=O)(=O)NC3(C)CC3)cc3c2n2nc(C(F)(F)F)nc2n3-c2nnc(C(F)F)s2)C[C@H](C)N1 [Compound 065W] yielded an AUC (IV, 1 mg/kg) of 1.26 µM·h, an MRT inf (IV, 1 mg/kg) of 5.6 h and a clearance (IV, 1 mg/kg) of 22 mL/min/kg. For the same molecule, the half-life (IV, 1 mg/kg) was 5.2 h, the Vd (IV, 1 mg/kg) was 7.2 L/kg and the AUC (PO, 30 mg/kg) was 18.3 µM·h. The Cmax (PO, 30 mg/kg) was 1980 nM, the MRT inf (PO, 30 mg/kg) was 5.7 h and the half-life (PO, 30 mg/kg) was 3.3 h.
